According to patent EP4778929A1, “NOVEL TYPE I TOPOISOMERASE INHIBITOR, AND PREPARATION METHOD THEREFOR AND USE THEREOF” (priority 2023, dated 2025):
pIC50: −log10 of the molar value. Where two headings read alike, the source gives them in different places.

Tests used:
in vivo = assay: in vivo
Method: Test Example 3. Pharmacokinetic Study for Determining Compound Concentrations in Mice by LC-MS/MS
Principle: LC-MS/MS is used to quantify the plasma concentrations of the test article at successive time points, generating an in-vivo pharmacokinetic profile.
Procedure: The test compound was dissolved in DMSO to prepare a 10 mg/mL stock solution. This stock was further diluted to 1 mg/mL with a vehicle consisting of 10 % DMSO + 10 % Solutol HS-15 + 80 % saline. Male CD-1 mice (JH Laboratory Animal Co., LTD) were employed; six animals were assigned per compound group. […] Serial blood samples (~50 µL whole blood, K2EDTA anticoagulant) were collected at 0.083, 0.25, 0.5, 1, 2, 4, 8 and 24 h (three mice per time point in a crossover design). Blood was centrifuged at 6 000 g for 5 min at 4 °C; plasma was harvested and stored at -70 °C until analysis. Plasma drug concentrations were determined by LC-MS/MS.
Calibration Curve and QC Preparation: Working solutions were prepared by dilution with MeOH:H2O (1:1). For each calibration or QC level, 3 µL of working solution was spiked into 57 µL of blank mouse plasma.
Sample Processing: To 30 µL of plasma was added 200 µL of methanol containing the internal standard (propranolol, 40 ng mL^-1). After vortex-mixing for 1 min, the mixture was centrifuged at 12 000 rpm for 10 min. A 100 µL aliquot of the supernatant was transferred to a clean plate for injection.
Pharmacokinetic Analysis: Concentration-time data were analyzed with WinNonlin 8.2 using a non-compartmental approach to derive PK parameters including Cmax, Tmax, AUC and terminal elimination half-life (t1/2). AUC was calculated by the linear-up/log-down trapezoidal method. Table 3. Pk parameters of compounds

topoisomerase I (Topo I) = molecular target: T1, topoisomerase I (Topo I) (Homo sapiens, UniProt P11387); assay: Topo I enzyme-inhibitory activity by agarose-gel electrophoresis (plasmid relaxation); format: biochemical
T1 sequence (P11387 1-765): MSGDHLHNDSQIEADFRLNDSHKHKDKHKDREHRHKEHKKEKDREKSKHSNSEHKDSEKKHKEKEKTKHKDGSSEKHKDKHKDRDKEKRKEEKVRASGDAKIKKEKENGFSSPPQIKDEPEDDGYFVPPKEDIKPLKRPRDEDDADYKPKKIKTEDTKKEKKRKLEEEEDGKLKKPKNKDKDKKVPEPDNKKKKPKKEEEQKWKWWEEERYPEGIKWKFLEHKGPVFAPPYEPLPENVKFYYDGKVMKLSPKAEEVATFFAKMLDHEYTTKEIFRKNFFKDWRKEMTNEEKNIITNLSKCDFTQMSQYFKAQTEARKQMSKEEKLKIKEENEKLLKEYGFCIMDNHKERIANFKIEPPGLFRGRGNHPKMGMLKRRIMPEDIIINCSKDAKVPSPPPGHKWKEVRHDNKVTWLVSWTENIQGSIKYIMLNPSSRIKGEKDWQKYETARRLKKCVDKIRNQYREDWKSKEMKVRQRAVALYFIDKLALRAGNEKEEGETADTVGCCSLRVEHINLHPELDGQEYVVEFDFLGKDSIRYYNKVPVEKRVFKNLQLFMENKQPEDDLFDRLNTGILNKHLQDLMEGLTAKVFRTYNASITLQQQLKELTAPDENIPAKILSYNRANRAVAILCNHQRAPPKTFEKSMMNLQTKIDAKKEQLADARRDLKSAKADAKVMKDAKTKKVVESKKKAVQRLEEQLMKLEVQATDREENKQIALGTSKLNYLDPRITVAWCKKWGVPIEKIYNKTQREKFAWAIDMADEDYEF
Text: Test Example 1. Determination of Topo I Enzyme-Inhibitory Activity by Agarose-Gel Electrophoresis
Principle: Type-I topoisomerase (Topo I) relaxes positive and negative supercoils by introducing transient single-strand breaks and forming reversible cleavage complexes (Topo I-DNA covalent complexes). Gel electrophoresis can resolve DNA species of identical molecular weight but different topology: supercoiled plasmid migrates fastest, whereas the nicked, relaxed form moves more slowly. Quantifying the decrease in supercoiled DNA therefore provides a direct measure of Topo I activity.
Experimental Procedure: A 1× reaction buffer was prepared (20 mM Tris-HCl pH 7.5, 200 mM NaCl, 0.25 mM EDTA, 5 % (v/v) glycerol, 0.5 µg pNO1 plasmid substrate). Test compounds (5 % DMSO final) were added to the buffer, followed by Topo I enzyme (0.75 U per reaction). After gentle mixing, reactions were incubated at 37 °C for 30 min. Positive (enzyme + vehicle) and negative (no enzyme) controls were included in parallel. Reactions were terminated by adding STEB buffer and chloroform/iso-amyl alcohol (24:1, v/v), vortexed and centrifuged for 2 min. The aqueous (upper) phase was loaded onto a 1 % (w/v) agarose gel, electrophoresed for 1-2 h, stained with GelRed, and imaged under UV trans-illumination.
Data Analysis: Band intensities of supercoiled DNA were quantified with image-analysis software. Relaxation activity (%) was calculated as (Max-Sample)/ (Max-Min)*100%, where Max = intensity of the no-enzyme negative control, Min = intensity of the vehicle-only positive control, and Sample = intensity of the compound-treated lane. Dose-response data (compound concentration, X; relaxation activity %, Y) were fitted in Excel or GraphPad Prism 5.0 using the four-parameter logistic equation: Y=Bottom + (Top-Bottom)/(1+(IC50/X)[…]) to derive the IC50 value for each compound.
Table 1. Compound-mediated inhibition of topoisomerase I (Topo I) enzymatic activity

[1] = male, CD-1, mouse, po, 20 mg/kg

SMILES: CC[C@@]1(O)C(=O)OCc2c1cc1n(c2=O)Cc2c-1c(=O)c1cc(F)ccc1n2[C@@H]1CCN(CCO)C1 [Example 252, (S)-4-ethyl-8-fluoro-4-hydroxy-11-((R)-1-(2-hydroxyethyl)pyrrolidin-3-yl)-1,12-dihydro-14H-pyrano[3',4':6,7]indolizino[2,1-b]quinoline-3,6,14(4H,11H)-trione]
- bioavailability (in vivo; male, CD-1, mouse): 43.1%
- AUC(0-t) (in vivo; male, CD-1, mouse, iv, 2 mg/kg): 674 ng·h/mL
- Cmax (in vivo; male, CD-1, mouse, iv, 2 mg/kg): 558 ng/mL
- clearance (in vivo; male, CD-1, mouse, iv, 2 mg/kg): 49.2 mL/min/kg
- half-life (in vivo; male, CD-1, mouse, iv, 2 mg/kg): 70.2 min
- AUC(0-t) (in vivo; [1]): 2820 ng·h/mL
- Cmax (in vivo; [1]): 680 ng/mL
- Tmax (in vivo; [1]): 79.8 min
- half-life (in vivo; [1]): 345 min

SMILES: CC[C@@]1(O)C(=O)OCc2c1cc1n(c2=O)Cc2c-1c(=O)c1cc(F)ccc1n2CCN(C)C1CC1 [Example 97, (S)-11-(2-(cyclopropyl(methyl)amino)ethyl)-4-ethyl-8-fluoro-4-hydroxy-1,12-dihydro-14H-pyrano[3,4:6,7]indolizino[2,1-b]quinoline-3,6,14(4H,11H)-trione]
- bioavailability (in vivo; mouse, in vivo): 34.5%
- AUC(0-t) at 24 h (in vivo; mouse, in vivo, iv, 1 mg/kg): 114 ng·h/mL
- Cmax (in vivo; mouse, in vivo, iv, 1 mg/kg): 256 ng/mL
- clearance (in vivo; mouse, in vivo, iv, 1 mg/kg): 146 mL/min/kg
- half-life (in vivo; mouse, in vivo, iv, 1 mg/kg): 28.9 min
- AUC(0-t) at 24 h (in vivo; mouse, in vivo, po, 10 mg/kg): 395 ng·h/mL
- Cmax (in vivo; mouse, in vivo, po, 10 mg/kg): 131 ng/mL
- Tmax (in vivo; mouse, in vivo, po, 10 mg/kg): 55.2 min
- half-life (in vivo; mouse, in vivo, po, 10 mg/kg): 75.6 min

SMILES: CC[C@@]1(O)C(=O)OCc2c1cc1n(c2=O)Cc2c-1c(=O)c1cc(F)c([C@@H](C)O)cc1n2C1CCCC1 (single isomer, unassigned) [Example 294]
- pIC50 (topoisomerase I (Topo I); 0.75 U Topo I, pNO1 plasmid, 37 °C, 30 min; compounds listed by group (Group A / Group B); read-out: inhibition of topoisomerase I (Topo I) enzymatic activity, IC50): 6.30 to 6.70

SMILES: CCc1c2c(nc3ccc(O)cc13)-c1cc3c(c(=O)n1C2)COC(=O)[C@]3(O)CC [SN38]
- AUC(0-t) at 24 h (in vivo; mouse, iv, 1 mg/kg): 103 ng·h/mL
- Cmax (in vivo; mouse, iv, 1 mg/kg): 278 ng/mL
- clearance (in vivo; mouse, iv, 1 mg/kg): 163 mL/min/kg
- half-life (in vivo; mouse, iv, 1 mg/kg): 34 min
- AUC(0-t) at 24 h (in vivo; mouse, po, 10 mg/kg): 0.23 ng·h/mL
- Cmax (in vivo; mouse, po, 10 mg/kg): 1.87 ng/mL

SMILES: CC[C@@]1(O)C(=O)OCc2c1cc1n(c2=O)Cc2c-1nc1cc(F)c(C)c3c1c2[C@@H](NC(=O)CO)CC3 [DXd]
- AUC(0-t) at 24 h (in vivo; mouse, in vivo, iv, 1 mg/kg): 154 ng·h/mL
- Cmax (in vivo; mouse, in vivo, iv, 1 mg/kg): 455 ng/mL
- clearance (in vivo; mouse, in vivo, iv, 1 mg/kg): 108 mL/min/kg
- half-life (in vivo; mouse, in vivo, iv, 1 mg/kg): 9.3 min
- AUC(0-t) at 24 h (in vivo; mouse, in vivo, po, 10 mg/kg): 4.32 ng·h/mL
- Cmax (in vivo; mouse, in vivo, po, 10 mg/kg): 6.99 ng/mL
- Tmax (in vivo; mouse, in vivo, po, 10 mg/kg): 19.8 min
- half-life (in vivo; mouse, in vivo, po, 10 mg/kg): 23.4 min

SMILES: CC[C@@]1(O)C(=O)OCc2c1cc1n(c2=O)Cc2c-1c(=O)c1cc(F)ccc1n2CCNC1CC1 [Example 96, (S)-11-(2-(cyclopropylamino)ethyl)-4-ethyl-8-fluoro-4-hydroxy-1,12-dihydro-14H-pyrano[3,4:6,7]indolizino[2,1-b]quinoline-3,6,14 (4H,11H)-trione]
- pIC50 (topoisomerase I (Topo I); read-out: inhibition of topoisomerase I (Topo I) enzymatic activity, IC50; 0.75 U Topo I, pNO1 plasmid, 37 °C, 30 min; compounds listed by group (Group A / Group B)): > 6.70
